Reference: article PMC5764437, “Discovery of novel, orally bioavailable, antileishmanial compounds using phenotypic screening” (PLoS Neglected Tropical Diseases, 2017)
Counter-ions that a name gives are not always drawn. Like-named read-outs stand apart in the source and are kept apart here. Starred links: 1 amine or outer side, 2 acyl side, 3 side chain; linkers in the order of their positions; H or OH if unused. Positions of bridges follow the written chain, without caps; N, C: chain ends. Non-standard residues stand in square brackets, D forms with d. Residues, ends and D or L forms follow the SMILES beside them. Chains are numbered I, II in the order given. Actinocin(9to1) = Cc1c2oc3c(C)ccc(C(=O)[*:1])c3nc-2c(C(=O)[*:2])c(N)c1=O; NMeV = CN[C@H](C(=O)O)C(C)C; Sar = CNCC(=O)O

What was measured:
[1] = tested on: L. mexicana promastigotes; test: High-throughput assay for growth inhibition of promastigotes (SYBR Green I); format: cell-based
Method: Into each well of 384-well microplates (black polystyrene, clear bottom, tissue culture treated, Corning), 15 μl of medium (DME-L [41] plus 100 μM xanthine and 10% heat inactivated fetal calf serum) was dispensed with a liquid dispenser (Matrix Wellmate, Thermo Scientific). Stock compounds, dissolved in DMSO at a fixed concentration of 10 mM, were pin-transferred (V&P Scientific) into the microplate to the desired final concentration using an automated robot arm. To each well of the plates, 15 μl of L. mexicana promastigotes (strain MNYZ/BZ/62/M379, 2 x 10^6/mL) was added with the Wellmate dispenser. Microplates were incubated (Liconic) at 28°C and 5% CO2 for 72 h. After incubation, 10 μl of lysis/dye solution (5X SYBR Green I, 5% Triton X-100 in PBS) was added to each well. Plates were shaken at 1000 rpm, incubated at room temperature for 20 min, and fluorescence signal measured (excitation 485 nm, emission 535 nm) with the Envision plate reader (PerkinElmer).
The initial promastigote screen was performed with the St. Jude Chemical Biology & Therapeutics (CBT) library consisting of 596,414 compounds. Library compounds were filtered by several computational methods to remove those likely to have undesirable physical or biological properties and biased towards oral bioavailability. In this way we focused the collection on compounds most likely to be effective in cellular models of activity, without structural features that would pose a challenge to drug development. In the primary screen, compounds were applied to promastigotes of L. mexicana at a fixed concentration of 10 μM, and parasite proliferation was monitored, following a 72 h incubation, by quantifying total DNA content after lysis using the nucleic acid binding dye SYBR Green I [45].
To confirm the activity of the primary hits and improve confidence that they would be reasonable starting points for drug development, a variety of secondary screens and analyses were employed (Fig 1A). […]. In parallel, mammalian cell growth inhibition was determined using in vitro proliferation assays with normal human fibroblasts (BJ cells). […]. To further triage the hits, we carried out a chemical structure analysis for the 2,703 primary hit compounds utilizing topology mapping and clustering methodology. We identified a wide range of chemotypes, including several scaffolds with potential structure-activity relationships (SARs), based on their dose response activity (Fig 2). Validated hits were then culled by eliminating scaffolds with less favorable drug development properties such as charged planar structures, reactive electrophilic warheads, known pan-assay interference motifs (PAINS), and compounds displaying gross rule of five noncompliance. Finally, we prioritized scaffolds with the possibility of facile chemical modification to generate a substantial number of structural analogs for future SAR and structure-property relationship (SPR) studies.

[2] = tested on: L. donovani intracellular amastigotes; test: Growth inhibition of intracellular amastigotes in J774A.1 macrophages (Renilla luciferase luminescence); format: cell-based; settings: Leishmania donovani
Method: (§1) L. mexicana (MNYZ/BZ/62/M379) or L. donovani (LdBob strain) parasites expressing the Renilla luciferase gene from a rRNA gene locus were used to infect J774A.1 macrophages. Growth of intracellular amastigotes was measured using a luminescence assay, as detailed previously. The growth inhibitor activities of compounds were tested against bloodstream form Lister 427 T. brucei in 96-well plates containing 1 X 10^5 parasites per well in 0.2 ml HMI-11 medium (Gibco/Thermo Fisher). Compounds (2 μl volumes in DMSO) were added to the parasites using serial 3-fold dilutions to cover a range of concentrations from about 10 μM to 1 nM. After 48 h incubation at 37°C under a humidified 5% CO2 atmosphere, 10 μl of 10% Triton X-100 and 100 X stock SYBR Green I (Sigma-Aldrich) in PBS was added and florescence measured (excitation 497 nm; emission 520 nm) after 1 h incubation in the dark using a Spectra Max Gemini XPS fluorimeter (Molecular Devices). Data were log transformed and EC50 values were determined using GraphPad Prism 6 (GraphPad Software). In the absence of growth inhibiting compounds, the parasites grew from an initial density of 5 X 10^5 cells/mL to ~3 X 10^6 cells/mL.

J774A.1 macrophages = test: Cytotoxicity to J774A.1 macrophages (dose-response); format: cell-based; settings: for EC50: Mus musculus
Method: Cytotoxicity of compounds to J774.A1 macrophages was determined by dose-response curves as described previously. In the absence of growth inhibitors or DMSO, the macrophages increased in number ~6-fold over 96 h in Minimum Essential Medium, employed for both macrophage infections and the toxicity assays.

[3] = tested on: bloodstream form Lister 427 T. brucei; test: Growth inhibition of T. brucei bloodstream forms (SYBR Green I); format: cell-based; settings: Trypanosoma brucei, read-out: T. brucei EC50
Method: as §1

[4] = tested on: L. mexicana intracellular amastigotes; test: Growth inhibition of intracellular amastigotes in J774A.1 macrophages (Renilla luciferase luminescence); format: cell-based; settings: Leishmania mexicana
Method: as §1
[…]. These were chosen as candidates for further study. From these 230 compounds, we were able to repurchase 113 from commercial vendors. These compounds were characterized for purity by ultra-performance liquid chromatography using ultraviolet spectroscopy and evaporative light scattering detection and identity by mass spectrometry. All validated compounds were profiled for activity against intracellular amastigotes, the disease-causing stage of the life cycle. Intracellular amastigote activity was determined using a strain of L. mexicana in which the Renilla luciferase gene was integrated into the rRNA locus, allowing robust expression for measuring amastigote growth within cultured macrophages. All 113 compounds were applied at 1 μM concentration for 96 h to J774A.1 macrophages infected with L. mexicana luciferase-expressing parasites. […].
Next, we generated dose-response curves for these 55 compounds against intracellular amastigotes and independently against J774A.1 macrophages to establish the relative potency of each compound against the pathogen and its host cell. […]. The nine remaining compounds, each representing a unique chemical scaffold (compounds 1–9, Fig 3), were designated top hits (Fig 1).

[5] = Mouse plasma protein binding assay (Rapid Equilibrium Dialysis); format: in vitro ADME; settings: mouse, mouse plasma, pH 7.4; Conc. 4 μM
Method: A Rapid Equilibrium Dialysis (RED) Plate (Thermo Scientific, catalog #, PI-90007) was used to determine the percentage of compound binding to mouse plasma proteins (Thermo Scientific, catalog #, 50642085). The positive control for this experiment was propranolol HCl (295.807 g/mol) and the internal standard was warfarin in methanol (2 μM). 10 mM stocks of compound in DMSO were diluted with DMSO and acetonitrile to three different intermediate concentrations: high (2 mM), medium (0.4 mM) and low (0.08 mM) concentration in DMSO:acetonitrile (1:4, v:v). 10 mM stock of propranolol in DMSO were diluted to 0.4 mM concentration in DMSO:acetonitrile (1:4 v:v).
In 10 Eppendorf tubes, the control (10 μL) or each of three compound dilutions (10 μL) were each added to separate aliquots of 990 μL mouse plasma. Potassium phosphate buffer (500 μL, 0.1 M, pH 7.4, 37 °C) was placed in every white well of the RED plate and each plasma/compound mixture was added to each of 3 RED wells (300 μL). The RED plate holds triplicate samples of one control (final concentration […]) and one compound (final concentrations: 20 μM, 4 μM, […]). The RED Plate was sealed and incubated at 37 °C shaking at 250 rpm for 4 hours. After incubation, aliquots (50 μL) from each well in the RED plate were transferred to an assay plate (pION Inc., MA, #110323). In order to create a uniform matrix in every well of the assay plate, plasma (50 μL) was added to each of the wells that already contained buffer and potassium phosphate buffer (50 μL) was added to each of the wells that already contained plasma/compound. Pre-cooled internal standard (300 μL) was added to the assay plate to quench the reaction. The quenched plate was then centrifuged (5810R, Eppendorf, Westbury, NY) at 3000 rpm for 20 minutes.
The percentage of free compound [1] and bound compound [2] was calculated usng the AUC ratio of compound to warfarin from the SIR spectra. For reporting data, % Free = Concentration buffer/Concentration plasma *100 %, and % Bound = 100% - % Free.

[6] = Leishmania mexicana, bracketed references point to earlier reports of antileishmanial activity, read-out: EC50 of known inhibitors identified by the HTS
[7] = J774.A1, intracellular amastigotes in J774A.1 macrophages, mean ± standard deviation, n = 2, read-out: L. donovani EC50
[8] = J774.A1, host macrophage, tested up to 10 μM, mean ± standard deviation, n = 2, read-out: J774A.1 EC50
[9] = bloodstream form, mean ± standard deviation, n = 2
[10] = J774.A1, intracellular amastigotes in J774A.1 macrophages, mean ± standard deviation, n = 2, read-out: L. mexicana EC50
[11] = bracketed references point to earlier reports of antileishmanial activity, read-out: EC50 of known inhibitors identified by the HTS

CN(C)c1ccc(C(=C2C=CC(=[N+](C)C)C=C2)c2ccc(N(C)C)cc2)cc1 [crystal violet]
EC50 [1, 6]: 290 nM

CCN(CC)c1ccc(C2N(C)c3ccccc3N2C)cc1 [Compound 6]
EC50 [2, 7]: 6 ± 7 nM
EC50 (J774A.1 macrophages; [8]): 3500 ± 700 nM
EC50 [3, 9]: 2000 ± 400 nM
EC50 [4, 10]: 5.5 ± 4.9 nM

N=C(N)c1ccc(OCCCCCOc2ccc(C(=N)N)cc2)cc1 [pentamidine]
Inhibition of proliferation (HTS positive control) ([1]; 72 h, primary screen conditions): 100%
EC50 ([1]; Leishmania mexicana, 72 h, median over HTS plates, interquartile range 1.7–3.1, read-out: EC50 of the control per screening plate (median)): 2300 nM

Fc1ccccc1Nc1nc(NCc2ccccc2)c2ccccc2n1 [Compound 2]
EC50 [2, 7]: 130 ± 20 nM
EC50 (J774A.1 macrophages; [8]): > 10000 nM
Reduction in viability / inhibition of host macrophage J774A.1 in dose-response studies (J774A.1 macrophages; up to 10 μM): no reduction in viability
EC50 [3, 9]: 2000 nM
EC50 [4, 10]: 44 ± 23 nM

Cc1c2oc3c(C)ccc(C(=O)N[C@@H]4C(=O)N[C@H](C(C)C)C(=O)N5CCC[C@H]5C(=O)N(C)CC(=O)N(C)[C@@H](C(C)C)C(=O)O[C@@H]4C)c3nc-2c(C(=O)N[C@@H]2C(=O)N[C@H](C(C)C)C(=O)N3CCC[C@H]3C(=O)N(C)CC(=O)N(C)[C@@H](C(C)C)C(=O)O[C@@H]2C)c(N)c1=O [actinomycin D] (I: T[dV]P[Sar][NMeV] / II: T[dV]P[Sar][NMeV]; ester I:1-I:C, II:1-II:C; linker I:N-II:N via Actinocin(9to1))
EC50 [1, 6]: 360 nM

avicin
EC50 [1, 11]: 1500 nM

CC[C@H]1CN2CCc3cc(OC)c(OC)cc3[C@@H]2C[C@@H]1C[C@H]1NCCc2cc(O)c(OC)cc21 [Compound 1, cephaeline]
EC50 ([2]; J774.A1, read-out: L. donovani EC50): 2 ± 0.5 nM
EC50 (J774A.1 macrophages; J774.A1, read-out: J774A.1 EC50): 920 ± 900 nM
EC50 [3]: 800 ± 200 nM
EC50 ([4]; J774.A1, read-out: L. mexicana EC50): 0.6 ± 0.2 nM

CN(C)C(=S)SSC(=S)N(C)C [thiram]
EC50 [1, 6]: 1770 nM

COc1ccc(C[C@H]2NC[C@H](O)[C@H]2OC(C)=O)cc1 [anisomycin]
EC50 [1, 11]: 580 nM

CC(C)NCC(O)COc1cccc2ccccc12 (centres unmarked) [Propranolol HCl, reference compound]
fraction unbound at 4 h, 4 μM [5]: 0.284

CCN(CC)C(=S)SSC(=S)N(CC)CC [disulfiram]
EC50 [1, 6]: 500 nM

CCCCCCCCn1c2c(c(=N)c3ccccc31)CCC2 [Compound 7]
EC50 [2, 7]: 11 ± 8 nM
EC50 (J774A.1 macrophages; [8]): 700 ± 300 nM
EC50 [3, 9]: 460 ± 400 nM
EC50 [4, 10]: 7 ± 6 nM
